Assay results from US8227428B2, “Anti-infammatory macrolide” (Glaxo Group Limited, priority 2009, dated 2012).

Test: Stability in buffer solutions pH 2 to pH 8 at 25° C.
Type: physicochemical
Procedure: Stability in buffer solutions pH 2 to pH 8 at 25° C., and in bio-relevant media (SGF pH 1.6, Fasted SIF pH 6.5 and Fed SIF pH 5.0) at 37° C., during 24 hours is monitored. The samples are analysed by LC/MS.
Buffer Solutions and Physiologically Relevant Media Used in Stability Assay:
LC Conditions: Instrument HP1100
Column: Waters XBridge C18, 2.1×50 mm, 3.5 μm
Guard column: Waters XBridge C18, 2.1×10 mm, 3.5 μm
• A) 0.1% HCOOH/H2O • B) 0.1% HCOOH/CH3CN Gradient Timetable: […]
Flow: 0.3 mL/min Column temp.: 25° C. Sample temp.: 25° C. (for stability assay in buffer solutions) • 37° C. (for stability assay in bio-relevant media) Injector volume: 3 μL (without injection program) MS Conditions: Instrument HP MS API-ES, positive ion mode Mass Range: 150-1500 Fragmentor: 100 Gain: 1.0 Treshold: 150 Step size: 0.20 Gas Temperature: 350° C. Drying Gas Flow: 13 L/min Nebulizer Pressure: 35 psig Capillary Voltage Positive 4000 V • Negative 4000 V Sample Preparation: a) For Stability Assay in Buffer Solutions
Compounds are dissolved in CH3CN to produce a 1 mg/mL stock solution. The stock solution is diluted to a concentration of 0.2 mg/mL (1 mL solution in 4 mL buffer) with appropriate buffer to produce a working solution.
Each solution at each pH is then dispatched into vials that are sealed and stored at room temperature in order to be analyzed at the proper time point. Before analysis, pH values of prepared sample solutions are checked and adjusted if neccessary.

CC[C@H]1OC(=O)[C@H](C)[C@@H](O[C@H]2C[C@@](C)(OC)[C@@H](OC(=O)CCN(CC)CC)[C@H](C)O2)[C@H](C)[C@@H](O[C@@H]2O[C@H](C)C[C@H](NC)[C@H]2O)[C@](C)(OC)C[C@@H](C)C(=O)N[C@H](C)[C@@H](O)[C@]1(C)O [Example 2, 3′-N-Demethyl-4″-O-(3-diethylaminopropionoyl)-6-O-methyl-9a-aza-9a-homoerythromycin A]
stability in buffers at pH 7 and at pH 8 (25° C., during 24 hours): showed instability
Percentage (Area %) of the compound observed in buffers (pH 2, 25° C., 2 h): 100 Area %
Percentage (Area %) of the compound observed in buffers (pH 2, 25° C., 4 h): 100 Area %
Percentage (Area %) of the compound observed in buffers (pH 2, 25° C., 6 h): 98.7 Area %
Percentage (Area %) of the compound observed in buffers (pH 2, 25° C., 8 h): 98.5 Area %
Percentage (Area %) of the compound observed in buffers (pH 2, 25° C., 12 h): 97.6 Area %
Percentage (Area %) of the compound observed in buffers (pH 2, 25° C., 14 h): 97.6 Area %
Percentage (Area %) of the compound observed in buffers (pH 2, 25° C., 18 h): 97.5 Area %
Percentage (Area %) of the compound observed in buffers (pH 2, 25° C., 20 h): 97.3 Area %
Percentage (Area %) of the compound observed in buffers (pH 2, 25° C., 22 h): 97.2 Area %
Percentage (Area %) of the compound observed in buffers (pH 2, 25° C., 24 h): 97.2 Area %
Percentage (Area %) of the compound observed in buffers (pH 2, 25° C., Initial): 100 Area %
Percentage (Area %) of the compound observed in buffers (pH 3, 25° C., 2 h): 100 Area %
Percentage (Area %) of the compound observed in buffers (pH 3, 25° C., 4 h): 100 Area %
Percentage (Area %) of the compound observed in buffers (pH 3, 25° C., 6 h): 98.8 Area %
Percentage (Area %) of the compound observed in buffers (pH 3, 25° C., 8 h): 97.5 Area %
Percentage (Area %) of the compound observed in buffers (pH 3, 25° C., 12 h): 97.3 Area %
Percentage (Area %) of the compound observed in buffers (pH 3, 25° C., 14 h): 97.3 Area %
Percentage (Area %) of the compound observed in buffers (pH 3, 25° C., 18 h): 97.0 Area %
Percentage (Area %) of the compound observed in buffers (pH 3, 25° C., 20 h): 97.0 Area %
Percentage (Area %) of the compound observed in buffers (pH 3, 25° C., 22 h): 97.0 Area %
Percentage (Area %) of the compound observed in buffers (pH 3, 25° C., 24 h): 96.9 Area %
Percentage (Area %) of the compound observed in buffers (pH 3, 25° C., Initial): 100 Area %
Percentage (Area %) of the compound observed in buffers (pH 4, 25° C., 2 h): 100 Area %
Percentage (Area %) of the compound observed in buffers (pH 4, 25° C., 4 h): 100 Area %
Percentage (Area %) of the compound observed in buffers (pH 4, 25° C., 6 h): 100 Area %
Percentage (Area %) of the compound observed in buffers (pH 4, 25° C., 8 h): 99.3 Area %
Percentage (Area %) of the compound observed in buffers (pH 4, 25° C., 12 h): 99.0 Area %
Percentage (Area %) of the compound observed in buffers (pH 4, 25° C., 14 h): 98.5 Area %
Percentage (Area %) of the compound observed in buffers (pH 4, 25° C., 18 h): 98.5 Area %
Percentage (Area %) of the compound observed in buffers (pH 4, 25° C., 20 h): 98.4 Area %
Percentage (Area %) of the compound observed in buffers (pH 4, 25° C., 22 h): 98.4 Area %
Percentage (Area %) of the compound observed in buffers (pH 4, 25° C., 24 h): 98.3 Area %
Percentage (Area %) of the compound observed in buffers (pH 4, 25° C., Initial): 100 Area %
Percentage (Area %) of the compound observed in buffers (pH 5, 25° C., 2 h): 98.5 Area %
Percentage (Area %) of the compound observed in buffers (pH 5, 25° C., 4 h): 98.5 Area %
Percentage (Area %) of the compound observed in buffers (pH 5, 25° C., 6 h): 98.4 Area %
Percentage (Area %) of the compound observed in buffers (pH 5, 25° C., 8 h): 98.4 Area %
Percentage (Area %) of the compound observed in buffers (pH 5, 25° C., 12 h): 98.4 Area %
Percentage (Area %) of the compound observed in buffers (pH 5, 25° C., 14 h): 98.3 Area %
Percentage (Area %) of the compound observed in buffers (pH 5, 25° C., 18 h): 98.3 Area %
Percentage (Area %) of the compound observed in buffers (pH 5, 25° C., 20 h): 98.3 Area %
Percentage (Area %) of the compound observed in buffers (pH 5, 25° C., 22 h): 98.3 Area %
Percentage (Area %) of the compound observed in buffers (pH 5, 25° C., 24 h): 98.0 Area %
Percentage (Area %) of the compound observed in buffers (pH 5, 25° C., Initial): 100 Area %
Percentage (Area %) of the compound observed in buffers (pH 6, 25° C., 2 h): 99.6 Area %
Percentage (Area %) of the compound observed in buffers (pH 6, 25° C., 4 h): 99.4 Area %
Percentage (Area %) of the compound observed in buffers (pH 6, 25° C., 6 h): 99.0 Area %
Percentage (Area %) of the compound observed in buffers (pH 6, 25° C., 8 h): 99.0 Area %
Percentage (Area %) of the compound observed in buffers (pH 6, 25° C., 12 h): 99.0 Area %
Percentage (Area %) of the compound observed in buffers (pH 6, 25° C., 14 h): 98.5 Area %
Percentage (Area %) of the compound observed in buffers (pH 6, 25° C., 18 h): 98.3 Area %
